The text below walks through data of US8680122B2, “Substituted pyrrolones as allosteric modulators of glucokinase” (Janssen Pharmacetica N.V., priority 2005, dated 2014).

“And” between values parts separate entries of the source, which are not always exact repeats. Equal values may be shown once. Some results are limits rather than exact numbers.

One experiment concerns the target T1, Liver GK (Homo sapiens, UniProt P35557).
T1 construct: (His)6; made in house; host or cells: Escherichia coli
T1 sequence (P35557 1-466 isoform P35557-2): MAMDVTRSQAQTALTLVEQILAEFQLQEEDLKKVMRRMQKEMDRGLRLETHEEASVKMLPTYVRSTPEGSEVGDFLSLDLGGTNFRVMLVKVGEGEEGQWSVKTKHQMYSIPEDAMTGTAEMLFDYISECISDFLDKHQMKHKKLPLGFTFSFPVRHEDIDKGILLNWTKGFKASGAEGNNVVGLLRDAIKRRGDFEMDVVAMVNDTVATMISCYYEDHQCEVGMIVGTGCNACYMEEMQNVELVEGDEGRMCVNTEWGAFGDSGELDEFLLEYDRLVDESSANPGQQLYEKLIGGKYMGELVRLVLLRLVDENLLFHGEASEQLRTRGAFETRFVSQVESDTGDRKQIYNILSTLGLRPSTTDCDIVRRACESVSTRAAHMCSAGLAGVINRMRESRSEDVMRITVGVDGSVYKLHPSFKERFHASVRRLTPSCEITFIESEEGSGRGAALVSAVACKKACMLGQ
The experiment is described as follows: Glucokinase enzyme assay, liver GK. It is filed as biochemical. The conditions noted are these: for EC50: concentration that produces 50% activation above the vehicle control; for EC100%: concentration that produces 100% activation above the vehicle control; for activation at 50 µM: percentage increase in GK activity above vehicle control, compound 50 μM, 12 mM glucose. An excerpt:
(§1) An enzymatic Glucokinase (GK) assay using purified recombinant human liver/pancreas enzyme was used to evaluate the effects of potential small molecule modulators.
(§2) In this assay, GK catalyzes glucose phosphorylation in the presence of ATP. The product of this reaction, glucose-6-phosphate, was then oxidized by an excess of glucose-6-phosphate dehydrogenase to produce gluconate-6-phosphate with concomitant reduction of nicotinamide adenine dinucleotide (NAD). […] Human GK (Liver/Pancreas) was expressed in Escherichia coli as a (His) 6-tagged fusion protein and was purified by metal chelate affinity chromatography. The assay was performed in a final incubation volume of 80 μl in a 96-well clear low UV absorption plates. The incubation mixture consisted of 25 mM HEPES, 2 mM MgSO4, 1 mM dithiothreotol (DTT), 1 mg/mL bovine serum albumin (BSA), 1 mM ATP, 1 mM NAD, and 12 mM glucose, 10 units per mL glucose-6-phosphate dehydrogenase, and +/−300 ng per mL GK. For determination of the affinity (Km) and Vmax, different concentrations of glucose ranging from 0.5 mM to 40 mM were used in the assay; see Grimsby, J., Sarabu, R.; Grippo, J. F.; et. al. Science 2003, 301, 370-373. Production of reduced NAD (Nicotinamide Adenine Dinucleotide) was measured as changes in absorption at 340 nm in 96-well plate reader (Envision model #2101 Multilabel Plate reader). % Activation @ 50 μM was calculated as the percentage increase in GK activity above the vehicle control with the effective concentration of the compound being 50 μM. EC50% (μM) was calculated as the effective concentration of the compound that produces 50% activation above the vehicle control, and EC100% (μM) was calculated as the effective concentration of the compound that produces 100% activation above the vehicle control.

The next experiment deals with T2, Pancreas GK (Homo sapiens, UniProt P35557).
T2 construct: (His)6; made in house; host or cells: Escherichia coli
T2 sequence (P35557 1-465): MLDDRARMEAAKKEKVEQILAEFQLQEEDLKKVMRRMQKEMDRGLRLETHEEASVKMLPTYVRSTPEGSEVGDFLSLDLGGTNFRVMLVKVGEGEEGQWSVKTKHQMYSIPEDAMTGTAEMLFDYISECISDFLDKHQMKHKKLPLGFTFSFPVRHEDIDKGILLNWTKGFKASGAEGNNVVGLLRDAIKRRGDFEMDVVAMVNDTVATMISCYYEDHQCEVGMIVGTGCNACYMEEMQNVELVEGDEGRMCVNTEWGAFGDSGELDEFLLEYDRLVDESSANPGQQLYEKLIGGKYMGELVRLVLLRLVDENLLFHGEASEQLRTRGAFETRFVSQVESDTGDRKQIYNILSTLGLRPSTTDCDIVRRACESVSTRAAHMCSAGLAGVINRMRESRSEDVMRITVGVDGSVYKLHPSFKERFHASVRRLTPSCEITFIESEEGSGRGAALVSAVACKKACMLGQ
The experiment can be described thus: Glucokinase enzyme assay, pancreas GK. It is filed as biochemical. The following applies: for EC50: concentration that produces 50% activation above the vehicle control; for EC100%: concentration that produces 100% activation above the vehicle control; for activation at 50 µM: percentage increase in GK activity above vehicle control, compound 50 μM, 12 mM glucose.
From the text: as §1, §2

As for `COC(=O)c1ccc(NC(=O)CSC2C(C)=C(C)C(=O)N2Cc2ccc(OC)cc2)nc1` (centres unmarked) [Compound 1, 6-{2-[1-(4-Methoxy-benzyl)-3,4-dimethyl-5-oxo-2,5-dihydro-1H-pyrrol-2-ylsulfanyl]-acetylamino}-nicotinic acid methyl ester], at Liver GK, the EC50 was 0.39 µM and 0.26 µM; the “EC100%” value was determined as 1.46 µM. Further, on Pancreas GK, the EC50 came out at 0.64 µM, the “EC100%” value amounted to 2.23 µM and the activation at 50 µM turned out to be 287%.
In the case of `COc1ccc(CN2C(=O)C(C)=C(C)C2SCC(=O)Nc2ccc(C(N)=O)cn2)cc1` (centres unmarked) [Compound 18], on Liver GK, the EC50 was found to be 1.13 µM, the “EC100%” value turned out to be 3.61 µM and the activation at 50 µM was 217%. Also, on Pancreas GK, the EC50 came out at 3.51 µM, the “EC100%” value is 12.02 µM and the activation at 50 µM is 167%.
Take `COc1ccc(CN2C(=O)C=C(C)C2SCC(=O)Nc2ccccn2)cc1` (centres unmarked) [Compound 19, 2-[1-(4-Methoxy-benzyl)-3-methyl-5-oxo-2,5-dihydro-1H-pyrrol-2-ylsulfanyl]-N-pyridin-2-yl-acetamide]: the EC50 stood at 13.8 µM at Liver GK and 15.2 µM at Pancreas GK. Further, the entries for the “EC100%” value at Liver GK and at Pancreas GK were 30.5 µM and 47.3 µM, respectively.
The like results for `CC1=C(C)C(SCC(=O)Nc2ccccn2)N(Cc2ccc3c(c2)CCO3)C1=O` (centres unmarked) [Compound 20, 2-[1-(2,3-Dihydro-benzofuran-5-ylmethyl)-3,4-dimethyl-5-oxo-2,5-dihydro-1H-pyrrol-2-ylsulfanyl]-N-pyridin-2-yl-acetamide] were, in that order, 2.78 µM, 3.23 µM, 6.61 µM and 8.87 µM.
For `COc1ccc(CN2C(=O)C(C)=C(C)C2SCC(=O)Nc2cc(C)ccn2)cc1` (centres unmarked) [Compound 21, 2-[1-(4-Methoxy-benzyl)-3,4-dimethyl-5-oxo-2,5-dihydro-1H-pyrrol-2-ylsulfanyl]-N-(4-methyl-pyridin-2-yl)-acetamide], the figures for the EC50 at Liver GK and at Pancreas GK were 4.73 µM and 7.12 µM, respectively. The entries for the “EC100%” value on Liver GK and on Pancreas GK were 12.68 µM and 19.43 µM, respectively.
Take `CCc1ccnc(NC(=O)CSC2C(C)=C(C)C(=O)N2Cc2ccc(OC)cc2)c1` (centres unmarked) [Compound 22, N-(4-Ethyl-pyridin-2-yl)-2-[1-(4-methoxy-benzyl)-3,4-dimethyl-5-oxo-2,5-dihydro-1H-pyrrol-2-ylsulfanyl]-acetamide]: on Liver GK, the EC50 is 17.3 µM and the activation at 50 µM came out at 82%. Also, on Pancreas GK, the EC50 is 24.1 µM and the activation at 50 µM was determined as 70%.
In the case of `COc1ccc(CN2C(=O)C(C)=C(C)C2SCC(=O)Nc2cccc(C)n2)cc1` (centres unmarked) [Compound 23, 2-[1-(4-Methoxy-benzyl)-3,4-dimethyl-5-oxo-2,5-dihydro-1H-pyrrol-2-ylsulfanyl]-N-(6-methyl-pyridin-2-yl)-acetamide], the EC50 on Liver GK turned out to be 6.23 µM; on Pancreas GK, 8.13 µM. The results for the “EC100%” value at Liver GK and at Pancreas GK were 13.78 µM and 20.28 µM, respectively.
For the compound `CC1=C(C)C(SCC(=O)Nc2ccccn2)N(Cc2cccs2)C1=O` (centres unmarked) [Compound 24, 2-(3,4-Dimethyl-5-oxo-1-thiophen-2-ylmethyl-2,5-dihydro-1H-pyrrol-2-ylsulfanyl)-N-pyridin-2-yl-acetamide], at Liver GK, the EC50 came out at 8.4 µM, the “EC100%” value stood at 26.7 µM and the activation at 50 µM came out at 172%. At Pancreas GK, the EC50 turned out to be 13.6 µM, the “EC100%” value stood at 37.3 µM and the activation at 50 µM came out at 124%.
On to `CC1=C(C)C(SCC(=O)Nc2ccccn2)N(Cc2ccc(C(C)C)cc2)C1=O` (centres unmarked) [Compound 25, 2-[1-(4-Isopropyl-benzyl)-3,4-dimethyl-5-oxo-2,5-dihydro-1H-pyrrol-2-ylsulfanyl]-N-pyridin-2-yl-acetamide], for which, on Liver GK, the EC50 is 6.3 µM, the “EC100%” value turned out to be 28.5 µM and the activation at 50 µM is 180%. Moreover, on Pancreas GK, the EC50 stood at 14.7 µM, the “EC100%” value was determined as 44.9 µM and the activation at 50 µM is 130%.
For the compound `CCc1ccc(CN2C(=O)C(C)=C(C)C2SCC(=O)Nc2ccccn2)cc1` (centres unmarked) [Compound 26, 2-[1-(4-Ethyl-benzyl)-3,4-dimethyl-5-oxo-2,5-dihydro-1H-pyrrol-2-ylsulfanyl]-N-pyridin-2-yl-acetamide], on Liver GK, the EC50 was 15.3 µM, the “EC100%” value is 35.9 µM and the activation at 50 µM turned out to be 154%. On Pancreas GK, this compound gave an EC50 of 24 µM and an activation at 50 µM of 102%.
Turning to `COC(=O)c1ccc(NC(=O)COC2C(C)=C(C)C(=O)N2Cc2ccc(OC)cc2)nc1` (centres unmarked) [Compound 27, 6-{2-[1-(4-Methoxy-benzyl)-3,4-dimethyl-5-oxo-2,5-dihydro-1H-pyrrol-2-yloxy]-acetylamino}-nicotinic acid methyl ester], on Liver GK, the EC50 was determined as 14.1 µM, the “EC100%” value was >50 µM and the activation at 50 µM is 90%. On Pancreas GK, the EC50 was 20 µM and the “EC100%” value was >50 µM.
Consider `COc1ccc(CN2C(=O)C(C)=C(C)C2OCC(=O)Nc2ccc(C)cn2)cc1` (centres unmarked) [Compound 28, 2-[1-(4-Methoxy-benzyl)-3,4-dimethyl-5-oxo-2,5-dihydro-1H-pyrrol-2-yloxy]-N-(5-methyl-pyridin-2-yl)-acetamide], for which, on Liver GK, the EC50 amounted to 14.2 µM, the “EC100%” value was >50 µM and the activation at 50 µM worked out at 90%. Also, at Pancreas GK, the EC50 came out at 18.5 µM and the “EC100%” value is >50 µM.
Take `COc1cc(CN2C(=O)C(C)=C(C)C2SCC(=O)Nc2ccccn2)cc(OC)c1` (centres unmarked) [Compound 29, 2-[1-(3,5-Dimethoxy-benzyl)-3,4-dimethyl-5-oxo-2,5-dihydro-1H-pyrrol-2-ylsulfanyl]-N-pyridin-2-yl-acetamide]: at Liver GK, the EC50 stood at 7.7 µM and the “EC100%” value amounted to 26.1 µM. In addition, at Pancreas GK, the EC50 was 11.8 µM and the “EC100%” value was determined as 41.4 µM.
The like results for `COc1ccc(CN2C(=O)C(C)=C(C)C2OCC(=O)Nc2ccccn2)cc1` (centres unmarked) [Compound 30, 2-[1-(4-Methoxy-benzyl)-3,4-dimethyl-5-oxo-2,5-dihydro-1H-pyrrol-2-yloxy]-N-pyridin-2-yl-acetamide] were, in that order, 34.5 µM, >50 µM, > 50 µM and >50 µM.
As for `COc1ccc(CN2C(=O)C(C)=C(C)C2OCC(=O)Nc2nccs2)cc1` (centres unmarked) [Compound 31, 2-[1-(4-Methoxy-benzyl)-3,4-dimethyl-5-oxo-2,5-dihydro-1H-pyrrol-2-yloxy]-N-thiazol-2-yl-acetamide], the activation at 50 µM on Liver GK was 21%; on Pancreas GK it was 3%.
